Measured values: the NIST ThermoML archive (doi:10.1021/je800197t)

Assay: xn = mol fraction of the nth substance listed
Details: 101 kPa, Liquid

CN1CCOCC1 [N-methylmorpholine] + O
Details	mass density, 323.15 K [kg/m3]	mass density, 333.15 K [kg/m3]	mass density, 343.15 K [kg/m3]	viscosity, 313.15 K [mPa·s]	viscosity, 323.15 K [mPa·s]	viscosity, 333.15 K [mPa·s]	viscosity, 343.15 K [mPa·s]
x1 = 0.0452	978.13	968.24	962.12	–	1.119	0.708	0.499
x1 = 0.0942	972.37	961.01	954.33	–	1.334	0.998	0.564
x1 = 0.1267	968.24	955.3	948.38	–	1.539	1.111	0.653
x1 = 0.1763	965.46	951.37	944.12	–	1.761	1.251	0.691
x1 = 0.2022	962.36	–	939.98	–	1.858	1.297	0.704
x1 = 0.2538	957.73	942.51	934.96	–	2.023	1.396	0.729
x1 = 0.2843	954.64	939.75	932.11	–	2.113	1.425	0.757
x1 = 0.3275	950.07	935.6	927.87	–	2.183	1.477	0.771
x1 = 0.3754	944.75	930.7	922.89	–	2.176	1.468	0.793
x1 = 0.4033	941.43	927.59	919.76	–	2.143	1.434	0.757
x1 = 0.4286	938.65	925	917.15	–	2.144	1.433	0.755
x1 = 0.4689	933.8	920.44	912.58	–	2.073	1.361	0.773
x1 = 0.4983	930.71	917.56	909.69	–	2.033	1.319	0.718
x1 = 0.5433	925.57	912.67	904.8	–	1.948	1.232	0.701
x1 = 0.5983	919.96	907.35	899.49	–	1.783	1.126	0.661
x1 = 0.6438	916.85	904.17	896.3	–	1.677	1.033	0.629
x1 = 0.6942	913.49	900.9	893.02	–	1.536	0.935	0.598
x1 = 0.7587	906.16	894.82	886.99	–	1.362	0.837	0.569
x1 = 0.8163	902.37	891.64	883.81	–	1.158	0.809	0.566
x1 = 0.8869	898.07	888.89	881.05	–	0.954	0.719	0.556
x1 = 0.9244	896.15	886.87	879.04	–	0.939	0.703	0.551
x1 = 0.9812	894.06	884.98	877.14	0.952	0.841	0.709	0.535
